The text below walks through data of US20230277863A1, “Use Of Photosensitizers For Treatment Of Viral Respiratory Infections” (priority 2020, published 2023).

One series deals with bovine coronavirus. The series is described as follows: Inactivation of bovine coronavirus in infected cells using non-coherent LED light. The format is cell-based. As to conditions: broadband LED light (non-coherent), 10000 Lux, 2 min of irradiation. The method, then:
In a further set of experiments, the U737 cells were treated under the conditions as shown in the table of FIG. 1 using irradiation with either a monochromatic LED device at 590 nm or a broadband LED device (non-coherent light in each case). Light intensity was 10000 Lux in both cases.

In the next series the test system is SARS-CoV-2. The experiment in a line: Treatment of a human subject suffering from COVID-19. The format is in vivo. As to conditions: one patient, 3 days, every 6 hours.
The test system of series [1] is SARS-CoV-2/Germany strain. The series is described as follows: Inactivation of SARS-CoV-2 in infected Vero E6 cells, methylene blue plus broadband LED irradiation. As to conditions: for mean reduction factor (RF): broadband LED (Ledlenser P6), SARS-CoV-2-infected Vero E6 cells; for inactivation of the SARS-CoV-2: corresponds to the mean RF.
A further series concerns BCoV strain L9. The series is described as follows: Inactivation of bovine coronavirus in infected U373 cells, photosensitizer plus 810 nm laser irradiation. As to conditions: for residual virus: 100 joule/cm^2, 0.3 watt/cm^2.
Where [2] appears, read: 0.01% photosensitizer, without radiation, immediately wrapped in aluminium foil, stored and frozen in the dark.

As to `CN(C)c1ccc2nc3ccc(=[N+](C)C)cc-3sc2c1` [methylene blue], the “reduction of residual virus” value with bovine coronavirus is 3 log10 steps. Moreover, the “PCR SARS-CoV-2 cycle threshold (CT) after treatment” value in the series on SARS-CoV-2 (3 μg methylene blue nasal/throat spray plus broadband LED ca. 6000 Lux, CT before treatment 19) came out at 35. The “condition of patient after treatment” value with SARS-CoV-2 (3 μg methylene blue spray plus broadband LED, before: dry cough, headache, 38.2° C., medium general condition) was “no cough, no headache, normalized body temperature, normal general condition”. Also, the “mean reduction factor (RF)” value in series [1] (0.0001% photosensitizer) and in series [1] (0.001% photosensitizer) was not below 4.67 each time. Also, the “inactivation of the SARS-CoV-2” value in series [1] (0.0001% photosensitizer) and in series [1] (0.001% photosensitizer) was 99.99% each time. Also, the residual virus entry in series [1] (0.001% or 0.0001% photosensitizer, irradiation 1 minute, 20,000 lx, initial virus titre 6.92 log 10 TCID50/ml, Vero E6 cells) is on record as “No residual virus was found”; in the series with BCoV strain L9 (0.0001% photosensitizer, 810 nm), “only minimal residual virus could still be detected in one sample”; with BCoV strain L9 (0.1% (w/v) to 0.001% (w/v) photosensitizer, 810 nm), “no residual virus was found”. In the series with BCoV strain L9 (0.0001% (w/v) photosensitizer, 810 nm, 100 joule/cm^2, 0.3 watt/cm^2, 5.46 min, BCoV-infected U373 cells), the mean reduction factor is not below 6.00 log10 steps. Further, the “cytotoxicity (CT)” value with BCoV strain L9 (0.0001% photosensitizer samples, titration on U373 cells) is recorded as “no cytotoxicity”. Also, the virus inactivation with BCoV strain L9 (0.0001% photosensitizer, 810 nm, 100 joule/cm^2, corresponds to the mean RF) is not below 99.999%. Besides, the “reduction factor (RF)” value stood at 5.08 log10 steps in the series with BCoV strain L9 (0.001% (w/v) photosensitizer, 810 nm, 100 joule/cm^2, 0.3 watt/cm^2, 5.46 min, BCoV-infected U373 cells); 4.08 log10 steps in the series with BCoV strain L9 (0.01% (w/v) photosensitizer, 810 nm, 100 joule/cm^2, 0.3 watt/cm^2, 5.46 min, BCoV-infected U373 cells); 0.38±0.64 in the series with BCoV strain L9 (setting [2]); 3.08 log10 steps with BCoV strain L9 (0.1% (w/v) photosensitizer, 810 nm, 100 joule/cm^2, 0.3 watt/cm^2, 5.46 min, BCoV-infected U373 cells). Further, the “residual virus / effectiveness” value in the series on BCoV strain L9 (setting [2]) is “substantial amounts of residual virus and no effectiveness”.
